This is an account of results in patent US6133279A, “Therapeutic agents for renal diseases and organ preservatives” (Chugai Seiyaku Kabushiki Kaisha, priority 1996, dated 2000).

The subject of assay [1] is porcine kidney-derived LLC-PK1 cells. Description: Protective effect against oxidized LDL-induced injury of porcine kidney-derived LLC-PK1 cells (1). It is filed as cell-based. The settings on record: Sus scrofa, LLC-PK1, 6 h, mean ± standard deviation, read-out: Cytoprotection rate (%). As for the experimental part:
For the purpose of evaluating in vitro cytoprotective effect of the compounds of the present invention, a cytoprotective study was performed using porcine kidney-derived LLC-PK1 cells (ATCC-CRL-13921) injured by oxidized low-density lipoprotein (oxidized LDL).
Oxidized LDL was prepared by incubating 1 mg/ml of rabbit LDL in PBS (-) in the presence of 10 μM CuSO4 at 37° C. for 24 hours. Cell culture was carried out by plating 1.25×10^4 cells/250 μl/well on a 48-well plate containing M199 medium containing 3% FBS. Test compounds were dissolved or suspended in ethanol and added to the wells in an amount of 1.25 μl/well to a concentration of 0.1, 1 or 10 μM in each well. After 16 hours or immediately after the addition of the compounds, oxidized LDL was added to the wells. Probucol, α-tocopherol and Trolox which is a water-soluble analogue of α-tocopherol were used as reference control compounds. Oxidized LDL was diluted twice with saline and then added to the wells in an amount of 62.5 μl/well to a concentration of 100 μg/ml and the cells were cultured for 6 hours after addition of the oxidized LDL. Then, 162.5 μl/well of the culture medium were collected and measured for the lactate dehydrogenase (LDH) level (LD-L: SIGNA DIAGNOSTICS) having leaked into the medium.
The magnitude of cytoprotective effect was expressed as the cytoprotection rate which was determined by calculating the data assuming that the magnitude in wells containing oxidized LDL is 0% and that the magnitude in wells containing saline is 100%.

Assay [2] deals with puromycin-induced nephrosis model. Description: Puromycin-induced nephrosis (2), postadministration (in vivo). Set-up: species or system rat (male SD rats). The following applies: 200 mg/kg oral once a day from the day following puromycin; for Creatinine: control 0.82 ± 0.07; for Urine nitrogen: control 30.74 ± 10.95; for Creatinine clearance: control 824 ± 108. Here is the method:
Effect of the compounds of the present invention on an in vivo renal disease was studied using a puromycin-induced nephrosis model. A puromycin-induced renal failure model was prepared from rats in groups of 5-8 each (6 week-old male SD rats) fed with high-fat diet. High-fat diet feeding was started by free access to high-fat diet (cholesterol level 1.25%) from 7 days before puromycin treatment. Puromycin (puromycin aminonucleoside, SIGMA Chemical Co.) treatment was performed by intraperitoneal administration at a dose of 100 mg/kg. Test compounds were administered as a solution in soybean oil via oral route (4 ml/kg). Control group was orally administered soybean oil alone. Probucol and a water-soluble α-tocopherol analogue, Trolox, were used as reference control compounds. The compounds were orally administered once a day from the following day of the puromycin treatment. Renal functions were determined by using urine and blood samples. The volume of urine, urea nitrogen level and creatinine levels of serum and urine were evaluated to calculate creatinine clearance as an indication of renal functions.

The subject of assay [3] is porcine kidney-derived LLC-PK1 cells. Description: Protective effect against oxidized LDL-induced injury of porcine kidney-derived LLC-PK1 cells (2). It is filed as cell-based. The settings on record: Sus scrofa, LLC-PK1, 6 h, mean ± standard deviation, read-out: Cytoprotection rate (%). As for the experimental part:
For the purpose of evaluating in vitro cytoprotective effect of the compounds of the present invention, a cytoprotective study was performed using porcine kidney-derived LLC-PK1 cells (ATCC-CRL-13921) injured by oxidized low-density lipoprotein (oxidized LDL) in the same manner as in Test example 1 with the exception of some points.
Preparation of oxidized LDL and the conditions for cell culture and addition of test compounds were the same as in Test example 1. However, oxidized LDL was not diluted with saline and added to cells in an amount of 25 μl/well to a concentration of 91 μg/ml and the cells were cultured for 6 hours after addition of the oxidized LDL. Then, 150 μl/well of the culture medium were collected and measured for the lactate dehydrogenase (LDH) level (LD-L: SIGMA DIAGNOSTICS) having leaked in the medium.

Assay [4] has as its system murine mesangial derived MES13 cells. Description: Protective effect against oxidized LDL-induced injury of murine mesangial cells (in vitro). It is filed as cell-based. The following applies: Mus musculus, MES13, 10 h, mean ± standard deviation, read-out: Cytoprotection rate (%). Here is the method: For the purpose of evaluating in vitro cytoprotective effect of the compounds of the present invention on mesangial cells, a cytoprotective study was performed using murine mesangial derived MES13 cells (ATCC-CRL-1927) injured by oxidized LDL.
Oxidized LDL was prepared in the same manner as in Test example 1. Cell culture was carried out by plating 2.5×10^4 cells/250 μl/well on a 48-well plate using FBS-free medium (mixture of DME medium and F12 medium in a ratio of 3:1). Test compounds were dissolved or suspended in ethanol and added to the wells in an amount of 1.25 μl/well to a concentration of 1 or 10 μM in each well. After 16 hours or immediately after the addition of the compounds, oxidized LDL was added to cells in an amount of 25 μl/well to a concentration of 91 μg/ml and the cells were cultured for 10 hours after addition of the oxidized LDL. Then, 150 μl/well of the culture medium were collected and measured for the lactate dehydrogenase level (LDL: SIGMA DIAGNOSTICS) having leaked in the medium.
The magnitude of cytoprotective effect was expressed as the cytoprotection rate which was determined by calculating the data assuming that the magnitude in wells containing oxidized LDL is 0% and that the magnitude in containing saline is 100%.

For assay [5] the following is noted: literature; cited from earlier work.
Where [6] appears, read: compound added 16 hours before adding oxidized LDL.
[7] abbreviates: compound added immediately before adding oxidized LDL.

Molecules are shown by their SMILES. Like-named read-outs stand apart in the source and are kept apart here.

In the case of `CC(C)(C)c1cc2c(c(C(C)(C)C)c1O)CC(Cc1ccccc1)(Cc1ccccc1)O2` [Example 16, 4,6-Di-t-butyl-2,2-dibenzyl-5-hydroxy-2,3-dihydrobenzofuran], in assay [1] (setting [6]), the inhibition at 0.1 µM worked out at 12 ± 7.5%, the inhibition at 1 µM came to 94.5 ± 4.9% and the inhibition at 10 µM stood at 98.3 ± 0.3%. Besides, in assay [1] (setting [7]), the inhibition at 0.1 µM is -36.7 ± 6.6%, the inhibition at 1 µM turned out to be 74.4% and the inhibition at 10 µM stood at 99.6 ± 0.1%. In assay [2], the “Creatinine” value is 0.73 ± 0.06 mg/dL, the “Urine nitrogen” value turned out to be 31.82 ± 10.84 mg/dL and the “Creatinine clearance” value came to 925 mL/day.

Turning to `CC(C)(C)c1cc2c(c(C(C)(C)C)c1O)CC1(CCCCCC1)O2` [Example 20, 4,6-Di-t-butyl-5-hydroxy-2,3-dihydrobenzofuran-2-spiro-1'-cycloheptane], in assay [1] (setting [6]), the inhibition at 0.1 µM was -11.3 ± 8.5%, the inhibition at 1 µM is 98.6 ± 1.2% and the inhibition at 10 µM is 106 ± 1.2%. For the same molecule, in assay [1] (setting [7]), the inhibition at 0.1 µM is -15.8 ± 8%, the inhibition at 1 µM is 99.9% and the inhibition at 10 µM came to 102 ± 4.7%. Also, in assay [2], the “Creatinine” value amounted to 0.61 ± 0.08 mg/dL, the “Urine nitrogen” value was 25.40 ± 10.28 mg/dL and the “Creatinine clearance” value came to 1144 ± 172 mL/day.

As for `CC1(CNC(N)=S)Cc2c(cc(C(C)(C)C)c(O)c2C(C)(C)C)O1` (centres unmarked) [Example 80, 1-[(4,6-Di-t-butyl-5-hydroxy-2-methyl-2,3-dihydrobenzofuran-2-yl)methyl]thiourea], the results for the inhibition at 0.1 µM in assay [3] (setting [6]) and in assay [3] (setting [7]) were 9.2 ± 1.8% and -1.3 ± 1.4%, respectively. Further, the inhibition at 1 µM in assay [3] (setting [6]) was 23.7 ± 5.8%; in assay [3] (setting [7]) it was 10.7%; in assay [4] (setting [6]), -7 ± 0.8%; in assay [4] (setting [7]), -1.3 ± 3.4%. In addition, the inhibition at 10 µM in assay [3] (setting [6]) is 102.4 ± 0.5%; in assay [3] (setting [7]) it was 102.6 ± 1%; in assay [4] (setting [6]), 22.1 ± 0.7%; in assay [4] (setting [7]) it was 56.2 ± 2.4%.

For `CC1(CNC(=N)NN)Cc2c(cc(C(C)(C)C)c(O)c2C(C)(C)C)O1` (centres unmarked) [Example 81, 1-Amino-3-[(4,6-di-t-butyl-5-hydroxy-2-methyl-2,3-dihydrobenzofuran-2-yl)methyl]guanidine], the inhibition at 0.1 µM in assay [3] (setting [6]) came to 6.9 ± 3.1%; in assay [3] (setting [7]), 8.8 ± 1.6%. The inhibition at 1 µM was 4.2 ± 5.1% in assay [3] (setting [6]), 37.8% in assay [3] (setting [7]), -3.9 ± 1.5% in assay [4] (setting [6]) and 3.9 ± 2.2% in assay [4] (setting [7]). Besides, the inhibition at 10 µM in assay [3] (setting [6]) came out at 101.1 ± 0.1%; in assay [3] (setting [7]) it was 101.3 ± 0.1%; in assay [4] (setting [6]) it was 7.3 ± 7.2%; in assay [4] (setting [7]), 73.4 ± 3.3%.

Regarding `CC1(COc2ccc(CNNC(=N)N)cc2)Cc2c(cc(C(C)(C)C)c(O)c2C(C)(C)C)O1` (centres unmarked) [Example 86, 1-{4-[(4,6-Di-t-butyl-5-hydroxy-2-methyl-2,3-dihydrobenzofuran-2-yl)methoxy]benzylamino}guanidine], the inhibition at 0.1 µM in assay [3] (setting [6]) was -0.4 ± 1.9%; in assay [3] (setting [7]) it was -0.7 ± 2.3%. In addition, the inhibition at 1 µM was 3.6 ± 5.8% in assay [3] (setting [6]), 0.2% in assay [3] (setting [7]), -1 ± 11.2% in assay [4] (setting [6]) and 19.8 ± 7% in assay [4] (setting [7]). Besides, the inhibition at 10 µM in assay [3] (setting [6]) was 40 ± 2.2%; in assay [3] (setting [7]), 102.5 ± 0.5%; in assay [4] (setting [6]) it was -4.3 ± 1.9%; in assay [4] (setting [7]) it was 78.7 ± 0.7%.

`CC1(CNNC(=N)N)Cc2c(cc(C(C)(C)C)c(O)c2C(C)(C)C)O1` (centres unmarked) [Example 87, 1-[(4,6-Di-t-butyl-5-hydroxy-2-methyl-2,3-dihydrobenzofuran-2-yl)methylamino]guanidine]: the inhibition at 0.1 µM is -7.8 ± 4.4% in assay [3] (setting [6]) and -0.3 ± 0.5% in assay [3] (setting [7]). The inhibition at 1 µM in assay [3] (setting [6]) was 6.5 ± 5.2%; in assay [3] (setting [7]), 28.6%; in assay [4] (setting [6]), 3.7 ± 3.3%; in assay [4] (setting [7]), 30.3 ± 3.8%. For the same molecule, the inhibition at 10 µM in assay [3] (setting [6]) came to 103.6 ± 0.5%; in assay [3] (setting [7]), 101.8 ± 0.6%; in assay [4] (setting [6]), 35.5 ± 4.2%; in assay [4] (setting [7]) it was 86.2 ± 0.6%.

Regarding `CC(C)(Sc1cc(C(C)(C)C)c(O)c(C(C)(C)C)c1)Sc1cc(C(C)(C)C)c(O)c(C(C)(C)C)c1` [Probucol, probucol, reference compound], in assay [1] (setting [6]), the inhibition at 0.1 µM is 22.5 ± 15.1%, the inhibition at 1 µM was determined as 36.4 ± 13.3% and the inhibition at 10 µM is 99.7 ± 1.1%. For the same molecule, in assay [1] (setting [7]), the inhibition at 0.1 µM was -1.8 ± 9.7%, the inhibition at 1 µM is 0.3% and the inhibition at 10 µM was found to be 17 ± 7.8%. In assay [2], the “Creatinine” value was determined as 0.98 ± 0.13 mg/dL, the “Urine nitrogen” value turned out to be 37.53 ± 7.53 mg/dL and the “Creatinine clearance” value amounted to 838 ± 187 mL/day.

For `Cc1c(C)c2c(c(C)c1O)CCC(C)(C(=O)O)O2` (centres unmarked) [Trolox, reference compound], in assay [1] (setting [6]), the inhibition at 0.1 µM is 0.4 ± 1.3%, the inhibition at 1 µM turned out to be 6.4 ± 10.6% and the inhibition at 10 µM worked out at 17.5 ± 16.9%. Moreover, in assay [1] (setting [7]), the inhibition at 0.1 µM was found to be 0%, the inhibition at 1 µM was -7.1% and the inhibition at 10 µM was -4.9 ± 6.3%. Also, in assay [2], the “Creatinine” value was 0.96 ± 0.14 mg/dL, the “Urine nitrogen” value was determined as 31.91 ± 11.93 mg/dL and the “Creatinine clearance” value is 660 mL/day.

As to `Cc1c(C)c2c(c(C)c1O)CCC(C)(CCCC(C)CCCC(C)CCCC(C)C)O2` (stereo not drawn) [α-tocopherol, reference compound], in assay [1] (setting [6]), the inhibition at 0.1 µM is 7.2 ± 2.2%, the inhibition at 1 µM is 72.1 ± 13.8% and the inhibition at 10 µM worked out at 98.9 ± 1%. In addition, in assay [1] (setting [7]), the inhibition at 0.1 µM is -2.8%, the inhibition at 1 µM came out at 8.2 ± 5.7% and the inhibition at 10 µM was found to be 2.7 ± 2.3%. Further, in assay [5], the “effect on renal disease models / renal functions (in words)” value is “its effect is not sufficient”.
